According to the Kinase Knowledgebase extract (Sharma et al. 2016):

target: MAPK14 (UniProt Q16539); assay: Inhibition of MAPK14 Kinase Activity
Sequence (Q16539 whole entry, looked up): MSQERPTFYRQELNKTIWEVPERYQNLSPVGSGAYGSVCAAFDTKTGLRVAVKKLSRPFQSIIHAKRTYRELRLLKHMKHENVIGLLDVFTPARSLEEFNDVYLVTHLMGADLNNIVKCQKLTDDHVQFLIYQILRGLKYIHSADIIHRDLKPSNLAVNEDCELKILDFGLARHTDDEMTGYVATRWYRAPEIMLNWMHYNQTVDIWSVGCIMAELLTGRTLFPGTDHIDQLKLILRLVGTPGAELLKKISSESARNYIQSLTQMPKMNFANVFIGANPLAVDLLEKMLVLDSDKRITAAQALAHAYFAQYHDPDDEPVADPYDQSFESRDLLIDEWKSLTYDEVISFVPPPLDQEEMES

IC50 [µM]	Compound
0.961	NC(=O)N(Cc1ccccc1F)c1cccc(-c2ccccc2Cl)n1
100	NC(=O)N(Cc1ccc(Cl)cc1Cl)c1cccc(-c2ccc(Cl)cc2)n1
79.4	NC(=O)N(Cc1ccccc1Cl)c1cccc(-c2cccc(F)c2)n1
> 100	NC(=O)N(Cc1c(F)cccc1F)c1ccc(CO)c(-c2ccccc2Cl)n1
> 100	NC(=O)N(Cc1c(Cl)cccc1Cl)c1cccc(-c2ccccc2Cl)n1
0.978	Cc1ccccc1-c1cccc(N(CCc2ccccc2)C(N)=O)n1
8.91	Cc1ccccc1-c1cccc(N(Cc2c(Cl)cccc2Cl)C(N)=O)n1
2.8	NC(=O)N(Cc1ccccc1)c1cccc(-c2ccccc2Cl)n1
> 100	COc1ccccc1-c1cccc(N(Cc2ccccc2F)C(N)=O)n1
> 100	Cc1cc(C)cc(-c2cccc(N(Cc3ccccc3Cl)C(N)=O)n2)c1
> 100	NC(=O)N(Cc1ccccc1Cl)c1cccc(-c2ccc(F)cc2)n1
2.81	Cc1cc(F)ccc1-c1cccc(N(Cc2c(F)cccc2F)C(N)=O)n1
0.873	Cc1ccccc1-c1cccc(N(Cc2ccccc2Cl)C(N)=O)n1
> 100	NC(=O)N(Cc1ccccc1Cl)c1cccc(-c2ccccc2F)n1
> 100	NC(=O)N(Cc1ccccc1F)c1cccc(-c2ccc(Cl)cc2)n1
> 100	COc1ccccc1-c1cccc(N(Cc2ccccc2Cl)C(N)=O)n1
1.12	NC(=O)N(Cc1cccc(F)c1)c1cccc(-c2ccccc2Cl)n1
2.2	Cc1cc(F)ccc1-c1nc(N(Cc2c(F)cccc2F)C(N)=O)ccc1CO
35.5	NC(=O)N(Cc1ccccc1Cl)c1cccc(-c2cc(F)ccc2F)n1

IC50 [µM]	Compound
> 100	Cc1ccccc1-c1nc(N(Cc2c(Cl)cccc2Cl)C(N)=O)ccc1CO
0.9	NC(=O)N(Cc1ccccc1Cl)c1cccc(-c2ccccc2Cl)n1
1	NC(=O)N(Cc1ccccc1F)c1ccc(CO)c(-c2ccccc2Cl)n1
0.751	Cc1ccccc1-c1cccc(N(Cc2cccc(F)c2)C(N)=O)n1
1.25	Cc1cc(F)ccc1-c1cccc(N(Cc2cccc(F)c2)C(N)=O)n1
2.15	Cc1cc(F)ccc1-c1cccc(N(Cc2c(Cl)cccc2Cl)C(N)=O)n1
> 100	NC(=O)N(Cc1ccccc1F)c1cccc(-c2ccc(F)cc2)n1
> 100	NC(=O)N(Cc1c(Cl)cccc1Cl)c1ccc(CO)c(-c2ccccc2Cl)n1
3.16	Cc1ccccc1-c1cccc(N(Cc2c(F)cccc2F)C(N)=O)n1
100	Cc1cc(F)ccc1-c1nc(N(Cc2c(Cl)cccc2Cl)C(N)=O)ccc1CO
25.1	NC(=O)N(Cc1ccc(Cl)cc1Cl)c1cccc(-c2ccccc2Cl)n1
> 100	Cc1cc(F)ccc1-c1cccc(N(Cc2ccccc2Cl)C(N)=O)n1
0.888	Cc1ccccc1-c1cccc(N(Cc2ccccc2F)C(N)=O)n1
1.13	NC(=O)N(Cc1ccc(F)cc1)c1cccc(-c2ccccc2Cl)n1
12.6	NC(=O)N(Cc1c(Cl)cccc1Cl)c1cccc(-c2c(F)cccc2F)n1
> 100	NC(=O)N(Cc1ccccc1Cl)c1cccc(-c2ccc(Cl)cc2)n1
> 100	COc1ccc(-c2cccc(N(Cc3ccccc3F)C(N)=O)n2)cc1
1.58	NC(=O)N(Cc1c(F)cccc1F)c1ccc(CO)c(-c2ccc(F)cc2F)n1
